Each compound was assayed against T1, human CIC-1 channels (Homo sapiens, UniProt P35523) (assay: Automated whole cell patch clamp (Qpatch 16) on CHO cells expressing human CIC-1, compound added intracellularly). Conditions: compound in intracellular solution vs vehicle control patches, positive shift reflects CIC-1 inhibition.
T1 construct: host or cells: CHO (Chinese hamster ovary) cells constitutively expressing human ClC-1
Type: cell-based
Protocol: The investigatory goal of these experiments was to evaluate how compounds affect the open probability and current amplitude of human CIC-1 channels expressed in CHO cells. Experiments were performed using an automated patch clamp system that allowed high throughput testing of whole cell patches together with both intracellular and extracellular addition of compound.
Automated whole cell patch clamp experiments were performed with the Qpatch 16 system (Sophion Bioscience, Ballerup, Denmark) at room temperature. Data acquisition and analysis were performed in the Qassay software (ver. 5.6, Odense).
To evoke CIC-1 currents in whole cell patches, the membrane potential was initially stepped from a holding potential of −30 mV to +60 mV for 100 ms and then to various test voltages (sweeps) ranging from +120 mV to −140 mV in steps of 20 mV for 300 ms. To obtain tail currents, the membrane potential was stepped to −100 mV after each test voltage for 300 ms and then relaxed to −30 mV for 2 sec between sweeps (FIG. 1). I/V relationships for whole cell instant and steady state current amplitudes were obtained by plotting average current densities at the beginning and at the end of the 300 ms step against the membrane potential (FIG. 2).
In order to determine the relative overall open probability (P0), the instantaneous tail currents were normalized to the maximal tail current obtained following the most positive voltage step and plotted against the test voltage. Plots of normalized tail currents from each whole cell patch were then fitted to a Boltzmann function allowing determination of half activation voltages (V1/2, FIG. 3).
For automated patch clamp experiments extracellular solutions contained: 2 mM CaCl2, 1 mM MgCl2, 10 mM HEPES, 4 mM KCl, 145 mM NaCl, 10 mM Glucose, pH adjusted to 7.4 with NaOH (2 M). Osmolality adjusted to ˜320 using sucrose.
Intracellular solutions contained: 80 mM CsF, 60 mM CsCl, 5/1 mM KOH/EGTA, 10 mM HEPES, 10 mM NaCl, pH adjusted to 7.2 with NaOH (2 M). Osmolality adjusted to ˜320 mOsm using sucrose.
Cells used in patch clamp experiments were Chinese hamster ovary cells (CHO) constitutively expressing human CIC-1 channels. The amino acid sequence encoded by the cDNA used to create this cell line was identical to the translated sequence for GenBank accession number NM_000083.2. Cells were produced by Charles River (Catalogue CT6175, Cleveland OH, USA) in a cryopreserved format. Experiments were performed on the cells directly after thawing (3×10^6 cells used in each experiment).
To evaluate the compound effect on CIC-1, when applied directly to the intracellular side of the cell membrane, the half activation voltage, V1/2, was determined from whole cell patches with compound added to the intracellular solution and then compared to V1/2 determined from control cell patches with only vehicle added to the intracellular solution. Additionally, the effect of extracellular added compound was evaluated by determine V1/2 and steady state current amplitudes before and after exchanging the extracellular solution to contain compound.
The difference in half activation voltage of CIC-1 channels, ΔV1/2, was determined as the difference between the cell patches treated intracellularly with compound and control cells patches and is reported in Table 1 below. A positive shift in ΔV1/2 is reflecting CIC-1 channel inhibition by the tested compound. P-values of <0.05 is considered significant.

T1 sequence (P35523 whole entry): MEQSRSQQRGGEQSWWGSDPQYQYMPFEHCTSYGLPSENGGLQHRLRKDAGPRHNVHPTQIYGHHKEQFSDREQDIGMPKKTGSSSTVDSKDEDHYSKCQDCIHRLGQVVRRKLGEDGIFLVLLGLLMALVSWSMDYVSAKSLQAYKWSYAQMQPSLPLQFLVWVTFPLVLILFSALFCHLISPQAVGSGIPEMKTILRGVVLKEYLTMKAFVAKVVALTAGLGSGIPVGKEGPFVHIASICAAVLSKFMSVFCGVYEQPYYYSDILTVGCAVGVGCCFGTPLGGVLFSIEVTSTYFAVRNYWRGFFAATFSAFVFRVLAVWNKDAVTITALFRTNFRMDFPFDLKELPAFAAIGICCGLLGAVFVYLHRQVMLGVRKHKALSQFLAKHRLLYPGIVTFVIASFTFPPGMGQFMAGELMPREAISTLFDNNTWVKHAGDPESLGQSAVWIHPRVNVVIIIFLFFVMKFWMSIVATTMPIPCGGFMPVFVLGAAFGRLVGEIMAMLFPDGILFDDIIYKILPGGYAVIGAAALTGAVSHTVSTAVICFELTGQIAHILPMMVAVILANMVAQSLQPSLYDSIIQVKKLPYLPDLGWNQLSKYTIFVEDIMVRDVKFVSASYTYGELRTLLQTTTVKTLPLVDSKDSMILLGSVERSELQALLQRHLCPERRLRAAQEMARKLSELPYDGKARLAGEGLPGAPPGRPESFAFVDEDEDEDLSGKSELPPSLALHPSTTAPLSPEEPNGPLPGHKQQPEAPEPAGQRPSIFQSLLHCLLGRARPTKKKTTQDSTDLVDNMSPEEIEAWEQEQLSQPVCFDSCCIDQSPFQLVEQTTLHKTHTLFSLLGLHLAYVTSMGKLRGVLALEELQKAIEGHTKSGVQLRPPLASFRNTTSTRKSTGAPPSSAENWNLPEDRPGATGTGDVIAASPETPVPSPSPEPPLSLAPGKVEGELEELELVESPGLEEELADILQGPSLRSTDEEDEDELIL

| Compound | Shift in half activation voltage, ΔV1/2 |
| --- | --- |
| CC[C@H](Oc1ccc(Br)cc1-c1ccon1)C(=O)O [(2S)-2-[4-bromo-2-(1,2-oxazol-3-yl)phenoxy]butanoic acid] | 7.2 mV |
| C[C@H](Oc1ccc(Cl)cc1-c1ccon1)C(=O)O [(2S)-2-[4-chloro-2-(1,2-oxazol-3-yl)phenoxy]propanoic acid] | 8.1 mV |
| C[C@H](Oc1ccc(Br)cc1-c1ccon1)C(=O)O [(2S)-2-(4-bromo-2-(isoxazol-3-yl)phenoxy)propanoic acid] | 14.1 mV |
| C[C@H](Oc1cc(F)c(Br)cc1-c1ccon1)C(=O)O [(2S)-2-[4-bromo-5-fluoro-2-(1,2-oxazol-3-yl)phenoxy]propanoic acid] | 17.7 mV |
| O=C(O)COc1ccc(Br)cc1-c1ccon1 [2-[4-bromo-2-(1,2-oxazol-3-yl)phenoxy]acetic acid] | 11.3 mV |

Source: patent US12221425B2, “Process for the preparation of CIC-1 chloride channel inhibitors” (NMD PHARMA A/S, priority 2019, dated 2025)
